From patent US8871738B2, “Fused bicyclic oxazolidinone CETP inhibitor” (Merck Sharp & Dohme Corp., priority 2011, dated 2014)
Read-outs that look alike come from different tables or passages of the source.

Target: endogenous CETP from serum (Homo sapiens (Human), UniProt P11597)
Experiment: RTA assay in 95% human serum (CETP-catalyzed CE and TG transfer, endogenous CETP)
Assay type: biochemical
[1] = RTA assay in 95% human serum, read-out: IC50

Sequence of endogenous CETP from serum (P11597 18-493 limits assumed): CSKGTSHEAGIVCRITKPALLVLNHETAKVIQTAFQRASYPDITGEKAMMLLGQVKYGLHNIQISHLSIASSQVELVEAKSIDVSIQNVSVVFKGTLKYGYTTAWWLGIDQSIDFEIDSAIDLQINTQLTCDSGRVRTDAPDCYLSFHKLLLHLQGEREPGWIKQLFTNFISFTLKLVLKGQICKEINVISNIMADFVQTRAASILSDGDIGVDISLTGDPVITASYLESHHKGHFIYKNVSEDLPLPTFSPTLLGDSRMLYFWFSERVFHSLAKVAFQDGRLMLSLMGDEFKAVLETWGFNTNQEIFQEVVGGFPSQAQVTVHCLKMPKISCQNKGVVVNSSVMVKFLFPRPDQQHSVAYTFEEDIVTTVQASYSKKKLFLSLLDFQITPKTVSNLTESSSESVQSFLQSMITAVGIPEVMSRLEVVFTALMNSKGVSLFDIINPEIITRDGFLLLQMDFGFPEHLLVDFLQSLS

Row | SMILES | IC50 [1] [nM] | IC50 (RTA assay, 95% human serum, read-out: RTA (95% HS)) [nM]
1 | COc1ccc([C@@H]2C[C@@H](O)[C@@H](O)C2)cc1-c1ccc(C(F)(F)F)cc1[C@@H]1CC[C@H]2[C@@H](c3cc(C(F)(F)F)cc(C(F)(F)F)c3)OC(=O)N12 [Example 58, (1R,5S,7aS)-1-[3,5-bis(trifluoromethyl)phenyl]-5-{5′-[(1s,3R,4S)-3,4-dihydroxycyclopentyl]-2′-methoxy-4-(trifluoromethyl)biphenyl-2-yl}tetrahydro-1H-pyrrolo[1,2-c][1,3]oxazol-3-one] | 418 | –
2 | COc1ccc(C2CCC(C(=O)O)CC2)cc1-c1ccc(C(F)(F)F)cc1[C@@H]1CC[C@H]2[C@@H](c3cc(C)cc(C(F)(F)F)c3)OC(=O)N12 (stereo partly drawn) [Example 52, 4-[6-methoxy-2′-{(1R,5S,7aS)-1-[3-methyl-5-(trifluoromethyl)phenyl]-3-oxotetrahydro-1H-pyrrolo[1,2-c][1,3]oxazol-5-yl}-4′-(trifluoromethyl)biphenyl-3-yl]cyclohexanecarboxylic acid] | 260 | –
3 | O=C1O[C@H](c2cc(C(F)(F)F)cc(C(F)(F)F)c2)[C@@H]2CC[C@@H](c3cc(C(F)(F)F)ccc3-c3cc(F)ccc3F)N12 [Example 25, (1R,5S,7aS)-1-[3,5-bis(trifluoromethyl)phenyl]-5-[2′,5′-difluoro-4-(trifluoromethyl)biphenyl-2-yl]tetrahydro-1H-pyrrolo[1,2-c][1,3]oxazol-3-one] | 104 | –
4 | O=C1O[C@H](c2cc(C(F)(F)F)cc(C(F)(F)F)c2)[C@@H]2CC[C@@H](c3cc(C(F)(F)F)ccc3-c3ccsc3)N12 [Example 18, (1R,5S,7aS)-1-[3,5-bis(trifluoromethyl)phenyl]-5-[2-thiophen-3-yl-5-(trifluoromethyl)phenyl]tetrahydro-1H-pyrrolo[1,2-c][1,3]oxazol-3-one] | 103 | –
5 | COc1cc(F)c(C(C)C)cc1-c1ccc(C(F)(F)F)cc1[C@@H]1C=C[C@H]2[C@@H](c3cc(C(F)(F)F)cc(C(F)(F)F)c3)OC(=O)N12 [Example 51, (1R,5S,7aS)-1-[3,5-bis(trifluoromethyl)phenyl]-5-[4′-fluoro-2′-methoxy-5′-(1-methylethyl)-4-(trifluoromethyl)biphenyl-2-yl]-5,7a-dihydro-1H-pyrrolo[1,2-c][1,3]oxazol-3-one] | 122 | –
6 | N#Cc1cscc1-c1ccc(C(F)(F)F)cc1[C@@H]1CC[C@H]2[C@@H](c3cc(C(F)(F)F)cc(C(F)(F)F)c3)OC(=O)N12 [Example 12, 4-[2-{(1R,5S,7aS)-1-[3,5-bis(trifluoromethyl)phenyl]-3-oxotetrahydro-1H-pyrrolo[1,2-c][1,3]oxazol-5-yl}-4-(trifluoromethyl)phenyl]thiophene-3-carbonitrile] | 266 | –
7 | Cc1cc(C(=O)O)ccc1-c1cnc(C)c(-c2ccc(C(F)(F)F)cc2[C@@H]2CC[C@H]3[C@@H](c4cc(C(F)(F)F)cc(C(F)(F)F)c4)OC(=O)N23)c1 [Example 66, 4-{5-[2-{(1R,5S,7aS)-1-[3,5-bis(trifluoromethyl)phenyl]-3-oxotetrahydro-1H-pyrrolo[1,2-c][1,3]oxazol-5-yl}-4-(trifluoromethyl)phenyl]-6-methylpyridin-3-yl}-3-methylbenzoic acid] | 1290 | –
8 | COc1ncc(C(C)C)cc1-c1ccc(C(F)(F)F)cc1[C@@H]1CC[C@H]2[C@@H](c3cc(C(F)(F)F)cc(C(F)(F)F)c3)OC(=O)N12 [Example 45, (1R,5S,7aS)-1-[3,5-bis(trifluoromethyl)phenyl]-5-{2-[2-methoxy-5-(1-methylethyl)pyridin-3-yl]-5-(trifluoromethyl)phenyl}tetrahydro-1H-pyrrolo[1,2-c][1,3]oxazol-3-one] | 44.7 | –
9 | O=C1O[C@H](c2cc(C(F)(F)F)cc(C(F)(F)F)c2)[C@@H]2CC[C@@H](c3cc(C(F)(F)F)ccc3-c3ccccc3Cl)N12 [Example 15, (1R,5S,7aS)-1-[3,5-bis(trifluoromethyl)phenyl]-5-[2′-chloro-4-(trifluoromethyl)biphenyl-2-yl]tetrahydro-1H-pyrrolo[1,2-c][1,3]oxazol-3-one] | 453 | –
10 | COc1cc(F)c(C(C)C)cc1-c1cnc(N(C)C)nc1[C@@H]1C=C[C@H]2[C@@H](c3cc(C(F)(F)F)cc(C(F)(F)F)c3)OC(=O)N12 [Example 48, (1R,5S,7aS)-1-[3,5-bis(trifluoromethyl)phenyl]-5-{2-(dimethylamino)-5-[4-fluoro-2-methoxy-5-(1-methylethyl)phenyl]pyrimidin-4-yl}-5,7a-dihydro-1H-pyrrolo[1,2-c][1,3]oxazol-3-one] | 695 | –
11 | COc1ncc(-c2ccc(C(=O)O)cc2C)cc1-c1ccc(C(F)(F)F)cc1[C@@H]1CC[C@H]2[C@@H](c3cc(C)cc(C(F)(F)F)c3)OC(=O)N12 [Example 55, 4-{6-methoxy-5-[2-{(1R,5S,7aS)-1-[3-methyl-5-(trifluoromethyl)phenyl]-3-oxotetrahydro-1H-pyrrolo[1,2-c][1,3]oxazol-5-yl}-4-(trifluoromethyl)phenyl]pyridin-3-yl}-3-methylbenzoic acid] | 85 | –
12 | COc1ccc([C@H]2[C@H](C)NC(=O)[C@@H]2C)cc1-c1ccc(C(F)(F)F)cc1[C@@H]1CC[C@H]2[C@@H](c3cc(C(F)(F)F)cc(C(F)(F)F)c3)OC(=O)N12 [Example 4, (1R,5S,7aS)-1-(3,5-bis(trifluoromethyl)phenyl)-5-(5′-((2S,3S,4R)-2,4-dimethyl-5-oxopyrrolidin-3-yl)-2′-methoxy-4-(trifluoromethyl)-[1,1′-biphenyl]-2-yl)tetrahydropyrrolo[1,2-c]oxazol-3(1H)one] | – | 398
13 | COc1ccc(Cl)cc1-c1ccc(C(F)(F)F)cc1[C@@H]1CC[C@H]2[C@@H](c3cc(C(F)(F)F)cc(C(F)(F)F)c3)OC(=O)N12 [Example 14, (1R,5S,7aS)-1-[3,5-bis(trifluoromethyl)phenyl]-5-[5′-chloro-2′-methoxy-4-(trifluoromethyl)biphenyl-2-yl]tetrahydro-1H-pyrrolo[1,2-c][1,3]oxazol-3-one] | 233 | –
14 | COc1ncc(-c2c(C)cc(C(=O)O)cc2C)cc1-c1ncc(C(F)(F)F)cc1[C@@H]1CC[C@H]2[C@@H](c3cc(C(F)(F)F)cc(C(F)(F)F)c3)OC(=O)N12 [Example 70, 4-[3-{(1R,5S,7aS)-1-[3,5-bis(trifluoromethyl)phenyl]-3-oxotetrahydro-1H-pyrrolo[1,2-c][1,3]oxazol-5-yl}-2′-methoxy-5-(trifluoromethyl)-2,3′-bipyridin-5′-yl]-3,5-dimethylbenzoic acid] | 751 | –
15 | COc1cc(F)c(-c2ccc(C(=O)O)cc2C)cc1-c1ccc(C(F)(F)F)cc1[C@@H]1CC[C@H]2[C@@H](c3cc(C)cc(C(F)(F)F)c3)OC(=O)N12 [Example 29, 6′-fluoro-4′-methoxy-2-methyl-2″- {(1R,5S,7aS)-1-[3-methyl-5-(trifluoromethyl)phenyl]-3-oxotetrahydro-1H-pyrrolo[1,2-c][1,3]oxazol-5-yl}-4″- (trifluoromethyl)-1,1′:3′,1″- terphenyl-4-carboxylic acid] | 44.6 | –
16 | O=C1O[C@H](c2cc(C(F)(F)F)cc(C(F)(F)F)c2)[C@@H]2CC[C@@H](c3cc(C(F)(F)F)ccc3C3=CCCC3)N12 [Example 22, (1R,5S,7aS)-1-[3,5-bis(trifluoromethyl)phenyl]-5-[2-cyclopent-1-en-1-yl-5-(trifluoromethyl)phenyl]tetrahydro-1H-pyrrolo[1,2-c][1,3]oxazol-3-one] | 56.6 | –
17 | COc1ncc(C(F)(F)F)cc1-c1ccc(C(F)(F)F)cc1[C@@H]1CC[C@H]2[C@@H](c3cc(C(F)(F)F)cc(C(F)(F)F)c3)OC(=O)N12 [Example 10, (1R,5S,7aS)-1-[3,5-bis(trifluoromethyl)phenyl]-5-{2-[2-methoxy-5-(trifluoromethyl)pyridin-3-yl]-5-(trifluoromethyl)phenyl}tetrahydro-1H-pyrrolo[1,2-c][1,3]oxazol-3-one] | 371 | –
18 | O=C1O[C@H](c2cc(C(F)(F)F)cc(C(F)(F)F)c2)[C@@H]2CC[C@@H](c3cc(C(F)(F)F)ccc3-c3cc(Cl)ccc3F)N12 [Example 23, (1R,5S,7aS)-1-[3,5-bis(trifluoromethyl)phenyl]-5-[5′-chloro-2′-fluoro-4-(trifluoromethyl)biphenyl-2-yl]tetrahydro-1H-pyrrolo[1,2-c][1,3]oxazol-3-one] | 188 | –
19 | COc1ccc([C@@H]2CC(=O)N[C@H]2C)cc1-c1ccc(C(F)(F)F)cc1[C@@H]1CC[C@H]2[C@@H](c3cc(C(F)(F)F)cc(C(F)(F)F)c3)OC(=O)N12 [Example 76, (1R,5S,7aS)-1-[3,5-bis(trifluoromethyl)phenyl]-5-{2′-methoxy-5′-[(2S,3S)-2-methyl-5-oxopyrrolidin-3-yl]-4-(trifluoromethyl)biphenyl-2-yl}tetrahydro-1H-pyrrolo[1,2-c][1,3]oxazol-3-one] | 466 | –
20 | COc1ncc(-c2c(C)cc(C(=O)O)cc2C)cc1-c1ccc(C(F)(F)F)cc1[C@@H]1CC[C@H]2[C@@H](c3cc(C(F)(F)F)cc(C(F)(F)F)c3)OC(=O)N12 [Example 56, 4-{5-[2-{(1R,5S,7aS)-1-[3,5-bis(trifluoromethyl)phenyl]-3-oxotetrahydro-1H-pyrrolo[1,2-c][1,3]oxazol-5-yl}-4-(trifluoromethyl)phenyl]-6-methoxypyridin-3-yl}-3,5-dimethylbenzoic acid] | 47 | –
21 | COc1cc(F)c(C(C)C)cc1-c1ccc(C(F)(F)F)cc1[C@@H]1CCC[C@H]2[C@@H](c3cc(C(F)(F)F)cc(C(F)(F)F)c3)OC(=O)N12 [Example 43, (1R,5S,8aS)-1-[3,5-bis(trifluoromethyl)phenyl]-5-[4′-fluoro-2′-methoxy-5′-(1-methylethyl)-4-(trifluoromethyl)biphenyl-2-yl]hexahydro[1,3]oxazolo[3,4-a]pyridin-3-one] | 1210 | –
22 | COc1cc(F)c(CCC(=O)O)cc1-c1ccc(C(F)(F)F)cc1[C@@H]1CCC[C@H]2[C@@H](c3cc(C(F)(F)F)cc(C(F)(F)F)c3)OC(=O)N12 [Example 46, 3-[2′-{(1R,5S,8aS)-1-[3,5-bis(trifluoromethyl)phenyl]-3-oxohexahydro[1,3]oxazolo[3,4-a]pyridin-5-yl}-4-fluoro-6-methoxy-4′-(trifluoromethyl)biphenyl-3-yl]propanoic acid] | 1630 | –
